We go through 2 molecules from BindingDB's records for doi:10.1016/0960-894X(95)00215-F (n/a, 1995).

The target of this assay is Phospholipase A2 group IIA. The assay is described as follows: Concentration required for in vitro inhibitory activity against human type II phospholipase A2.

The structures appear in SMILES notation.

In general, IC50 refers to the point on the concentration scale where inhibition reaches its midpoint. Low values mean inhibition by little substance, high ones a need for much substance. In turn, `CCOC(=O)[C@@]1(Cc2ccccc2)S[C@H](F)C(C)(C)C1=O` showed an IC50 of 676 nM.

`CCOC(=O)[C@@]1(Cc2ccccc2)S[C@@H](F)C(C)(C)C1=O` came in with an IC50 of 4090 nM.
